Measured values: patent publication US20260355330A1, “CELL PENETRATING PEPTIDES AND USES THEREOF” (VECTIOPEP OÜ, priority 2022, published 2026)
Entries after “also recorded” stand apart in the source; their conditions may differ. Positions of bridges follow the written chain, without caps; N, C: chain ends. Non-standard residues stand in square brackets, D forms with d. Residues, ends and D or L forms follow the SMILES beside them. Chains are numbered I, II in the order given. *: point of attachment. Stearoyl = CCCCCCCCCCCCCCCCCC(=O)*; Dab = NCC[C@H](N)C(=O)O

Legend:
[1] = in words; previously reported; cited from earlier work
[2] = tested on: spleen of BALB/c mice; assay: In vivo delivery of mRNA with CPPs - reporter levels in the spleen; settings: for Reporter levels in the spleen (RLU): mRNA, tail vein injection, spleens harvested 16 hours after single injection, whole tissue homogenate
Outline: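 CPP/mRNA complexes were formed at the indicated charge ratios in water for 30 min at room temperature, using 10 or 50 μg mRNA, then brought to 5% glucose. Complexes were injected intravenously via the tail vein into BALB/c mice. Spleens were harvested 16 h after the single injection, and luciferase (RLU) was measured in whole-tissue homogenate.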

[3] = tested on: CHO-K1 cells; assay: Delivery of reporter mRNA with CPPs in cell culture (luciferase luminescence 24 h post-transfection); assay type: cell-based; settings: for Average RLU/mg (reporter levels post-transfection of mRNA): firefly luciferase mRNA, 0.1 μg per well, charge ratio 3:1, serum containing media, 24 h, RLU normalised to total protein in lysate; for Efficiency of mRNA transfection/delivery: FIG. 1 / Table 2, cell culture
Outline: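 CHO-K1 cells (10,000/well) transfected in 10% FBS DMEM with 0.1 μg firefly luciferase mRNA complexed with CPP at 3:1 charge ratio (peptide excess). Luminescence read in lysates 24 h later, normalised to BCA total protein (RLU/mg).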

[4] = in words; previously reported; cited from earlier work; remark: listed apart in the source
[5] = tested on: BALB/c mice; assay: Live animal imaging 1-48 hours post administration of NF424/mRNA or NF424/pDNA complexes; assay type: in vivo
Procedure: FIG. 4: Live animal imaging 1-48 hours post administration of NF424/mRNA or NF424/pDNA complexes. Reporter gene product levels were evaluated with full body imager at 1 h, 6 h, 12 h, 24 h, and 48 h post-injection.
(§1) The transfection complexes (CPP/mRNA) were formed using 10 μg of mRNA mixed with each peptide at indicated charge ratios (CRs) in MQ water in a final volume of 100 μl. CRs were calculated theoretically and account for both the positive charges of the peptide and negative charges of the nucleic acid. The transfection complexes (CPP/mRNA and CPP/pDNA) were formed using 50 μg of mRNA mixed with each peptide at indicated charge ratios (CRs) in MQ water in a final volume of 168 μl. The complexes were incubated for 30 minutes at room temperature and then mixed with equal volume of 10% glucose (resulting in a final solution of 5% glucose in a total volume of 200 μl for 10 μg dose groups and 336 μl for 50 μg dose groups) and immediately injected intravenously via the tail vein.
100 μl of luciferin (PerkinElmer), at a concentration of 15 mg/ml, was intraperitoneally injected into the mice. After 10 min, the mice were imaged using the In Vivo Imaging System (IVIS Lumina II, PerkinElmer).
Live animal imaging was used to track the timepoints of mRNA and pDNA transfection with NFs (FIG. 4). The CPP used was NF424, complexes were formed in parallel with mRNA or pDNA and injected through the tail vein of BALB/c mice. The reporter gene expression levels were evaluated with full body imager at 1 h, 6 h, 12 h, 24 h and 48 h post-injection.

[6] = tested on: liver, spleen, lung, kidney, heart and thymus of Balb/c mice; assay: Biodistribution of reporter levels post-transfection of mRNA or pDNA with CPPs in vivo (tissue homogenate); settings: for Organ distribution of mRNA delivery: mRNA cargo
Procedure: FIG. 3: Biodistribution of reporter levels post-transfection of mRNA or pDNA with NFs or PFs CPPs in vivo. Reporter gene product levels were evaluated from the whole tissue homogenates collected post mortem. Results are shown as the fold change to mRNA or pDNA treated mice.
as §1
The reporter gene (luciferase) expression levels were evaluated from the tissue homogenate post mortem 16-24 h after single injection.
In order to determine to which organs in vivo mRNAs may be delivered to with NickFect or PepFect CPPs, mRNA complexes with NF55, NF71 and PF14 were formed and injected through the tail vein of Balb/c mice (FIG. 3A). The organs were harvested 24 hours after the single injection and reporter signal was measured from whole tissue homogenates. The biodistribution of reporter levels was measured in liver, spleen, lung, kidney, heart and thymus.
In order to compare the biodistribution profiles between harvested organs when using either mRNA or pDNA as cargo, NF424 was used to transfect these 2 types of nucleic acids in vivo (FIG. 3B and Table 4).

[7] = tested on: CHO-K1 cells; assay: Comparison of reporter levels in cells post-transfection of pDNA or mRNA delivered by CPPs; assay type: cell-based; settings: in words, FIG. 2
Procedure: FIG. 2: Comparison of reporter levels in cells post-transfection of pDNA or mRNA delivered by CPPs (P14, NF55 and NF71; relative light units normalised to total protein in the cell lysate (RLU/mg)). Naked mRNA and untreated cells (UT) were used as controls.
Adherent CHO-K1 cells were grown in Dulbecco's Modified Eagle's Medium (DMEM), which were supplemented with 0.1 mM non-essential amino acids, 1.0 mM sodium pyruvate, 100 U/ml penicillin, and […]. For complete media, 10% (final) fetal bovine serum (FBS) was added. Cells were maintained in a humidified incubator at 37 °C, 5% CO2. Cell viability and confluence was assessed daily and the cell density was reduced regularly. For cell counting, we used the CytoSMART cell counter accompanied by 0.4% trypan blue staining prior measurement. The multi-well plates with cell cultures used for experiments were incubated in a humidified incubator at 37 °C, 5% CO2.
For in vitro experiments 0.1 μg of nucleic acid (plasmid DNA (pDNA) or mRNA) was used per 96-well plate well. For CPP/NA complex formation, the diluted NA was mixed with CPP in water. Complexes were formed based on the theoretical charge ratio (CR) of positive charges from the peptide in excess to the negative charges from nucleic acid backbone, at charge ratio 3:1 with peptide in excess. […]
For reporter luminescence (expressed from firefly luciferase encoding mRNA or plasmid pDNA) assessment in adherent cell culture, 10,000 cells per 96-well plate well were seeded in 100 μl of media one day prior to transfection. […]
24 hours post-transfection, the media was aspirated, cells were washed with 1×PBS, and 30 μl of lysis buffer (0.1% Triton X100 in 1×PBS) was added. […] From the lysate, 20 μl was transferred to a black frame white well 96-well plate for luminescence measurement after addition of substrate luciferin (PerkinElmer) in buffer. The luminescence signal was detected with GloMax® 96 microplate luminometer equipped with GloMax® 1.9.2 software (Promega). […]

[8] = NF424 delivery of mRNA, fold change to mRNA treated mice
[9] = NF424 delivery of pDNA, fold change to pDNA treated mice
[10] = mRNA delivery, i.v. tail vein, 24 h after single injection, FIG. 3: fold change to mRNA or pDNA treated mice

NF70: SEQ ID NO: 13; HHHHYHHGO*ILLKALKALAKAIL; control/comparator construct [reference compound]
miRNA delivery efficiency [1]: very efficient for siRNA and miRNA delivery | Reporter levels in the spleen (RLU) [2]: 8 000 RLU | Average RLU/mg (reporter levels post-transfection of mRNA) [3]: 919 720 RLU/mg | Efficiency of mRNA transfection/delivery ([3]; in words): not efficient for mRNA delivery | siRNA delivery efficiency [4]: very efficient for siRNA and miRNA delivery; also recorded: the most efficient, even more efficient than NF55

CCCCCCCCCCCCCCCCCC(=O)N[C@@H](C)C(=O)NCC(=O)N[C@@H](Cc1ccc(O)cc1)C(=O)N[C@@H](CC(C)C)C(=O)N[C@@H](CC(C)C)C(=O)NCC(=O)NCC[C@H](N)C(=O)N[C@@H](CC(C)C)C(=O)N[C@@H](CCCCN)C(=O)N[C@@H](C)C(=O)N[C@@H](CC(C)C)C(=O)N[C@@H](C)C(=O)N[C@@H](C)C(=O)N[C@@H](CC(C)C)C(=O)N[C@@H](C)C(=O)N[C@@H](CCCCN)C(=O)N[C@@H](C)C(=O)N[C@H](C(=O)N[C@@H](CC(C)C)C(N)=O)[C@@H](C)CC [NF424] (I: H-[Dab]LKALAALAKAIL-NH2 / II: Stearoyl-AGYLLG; amide I:1-II:C)
Efficacy of mRNA delivery into the spleen in vivo ([2]; in words, FIG. 5 / Table 5): highest reporter levels after mRNA delivery into the spleen in vivo | Delivery of mRNA in vivo compared to NF54 and/or NF55 ([2]; in words, comparator NF54 and/or NF55): significantly improved delivery of mRNA in vivo over both NF54 and NF55 | Reporter levels in the spleen (RLU) [2]: 427 566 RLU | Time at which reporter signal was detected in the spleens ([5]; NF424/mRNA complexes, 10 μg mRNA, tail vein): ≤ 1 h | Time at which reporter signal was visible in the lungs ([5]; NF424/pDNA complexes, 50 μg pDNA, tail vein): 6 h | Detected signal, mRNA vs pDNA ([5]; in words, 10 μg mRNA vs 50 μg pDNA): the detected signal was much higher from mRNA | Main organ of mRNA delivery (live imaging) ([5]; in words, mRNA cargo): delivers mRNA mostly to the spleen | Main organ of pDNA delivery (live imaging) ([5]; in words, pDNA cargo): pDNA to the lungs | Average RLU/mg (reporter levels post-transfection of mRNA) [3]: 2 590 000 000 RLU/mg | Efficiency of mRNA transfection/delivery ([3]; in words): the most efficient | Delivery of mRNA compared to NF54 ([3]; in words, comparator NF54): good improvement in delivery of cargo such as mRNA over NF54 | Delivery of mRNA compared to NF55 ([3]; in words, comparator NF55): significantly improved delivery of mRNA over NF55 | Fold/mRNA, Liver [6, 8]: 9 Fold | Fold/mRNA, Lung [6, 8]: 98 Fold | Fold/mRNA, Spleen [6, 8]: 8 330 Fold | Fold/pDNA, Liver [6, 9]: 2 Fold | Fold/pDNA, Lung [6, 9]: 11 Fold | Fold/pDNA, Spleen [6, 9]: 5 Fold | Organ distribution of mRNA delivery ([6]; in words): the highest expression levels were found in the spleen of treated mice | Organ distribution of pDNA delivery ([6]; in words, pDNA cargo): the main expression was found in lungs and liver

NF71: SEQ ID NO: 14; HHYHHGO*ILLKALKALAKAIL; control/comparator construct
miRNA delivery efficiency [1]: very efficient for siRNA and miRNA delivery; also recorded: very efficient for siRNA and miRNA transfections; also recorded: the most efficient in vivo | Average RLU/mg (reporter levels post-transfection of mRNA) [3]: 3 505 987 RLU/mg | Efficiency of mRNA transfection/delivery ([3]; in words): not efficient for mRNA delivery | Efficiency of mRNA transfection (parallel pDNA/mRNA comparison) ([7]; mRNA cargo): not effective tools for mRNA transfection/delivery; also recorded: not an efficient delivery vector for mRNA | Efficiency of pDNA transfection (parallel pDNA/mRNA comparison) ([7]; pDNA cargo): very efficient transfection reagents for pDNA delivery | Organ distribution of mRNA delivery ([6]; in words): delivered mRNA mostly into the spleen, with very low transfection levels seen in other organs | Reporter level, Liver [6, 10]: 8 | Reporter level, Lung [6, 10]: 6 | Reporter level, Spleen [6, 10]: 124 | siRNA delivery efficiency [4]: very efficient for siRNA and miRNA delivery; also recorded: very efficient for siRNA and miRNA transfections; also recorded: the most efficient, even more efficient than NF55
